According to PubChem BioAssay AID2305 (GlaxoSmithKline (GSK), 2010):

Each compound was assayed on P. falciparum 3D7 growth, pLDH absorbance (assay: P. falciparum 3D7 growth inhibition, dose response, strain 3D7 (AID 2305)).

SMILES	IC50
N#Cc1ccc(-c2ccc(C(=O)NCCCCN3CCC(c4ccc5c(c4OCC(N)=O)CCCC5)CC3)nc2)cc1	730 nM
COc1cc2cc(-c3nc4ccccc4[nH]3)c(N)nc2cc1OC	170 nM
Cn1nc(-c2cccc(CNC3CCc4ccccc43)c2)c2cnc(NC3CCCC3)nc21 (stereo not given)	860 nM
c1ccc(COc2ccc(Nc3ncnc4cnc(-c5ccc(CNc6cccnc6)o5)cc34)cc2)cc1	860 nM
COCC(C)n1c(C)cc(C(=O)CSc2nnc(Nc3ccccc3)s2)c1C (stereo not given)	740 nM
Fc1ccc2nc(-c3ccc(-c4cccc(CN5CCN(CCN6CCOCC6)CC5)c4)cc3)[nH]c2c1	140 nM
CN(CCCCNC(=O)c1cc2ccccc2[nH]1)C1CC2(CCN(C(=O)OC(C)(C)C)CC2)c2ccccc21 (stereo not given)	930 nM
COc1cccc(CNCC(C)(C)c2nc(-c3ccc(Cl)c(O)c3)c(-c3ccncc3)[nH]2)c1	690 nM
COc1ccc(NC(=O)/C=C/c2ccccc2Cl)cc1OCCN1CCC(N(C)C)CC1	970 nM
O=C(/C=C/c1ccc(Cl)c(Cl)c1)N1CCC(CCN2CCC(c3c[nH]c4cc5c(cc34)OCO5)CC2)CC1	730 nM
CC(C)(C)c1ccc(NC(=O)c2ccc(CN3CCCN(Cc4cccc(O)c4)CC3)cc2)cc1	670 nM
O=C(NC1CCC(N2CCC(c3nc4ccccc4s3)CC2)CC1)c1cc2ccccc2[nH]1 (stereo not given)	930 nM
CS(=O)(=O)c1ccc(CCNCc2ccc(-c3ccc(CN(C(=O)C4CC(=O)c5ccccc54)C4CCN(Cc5ccccc5)CC4)cc3)nc2)cc1 (stereo not given)	590 nM
c1ccc(CCNCc2ccc(-c3ccc(CNc4ccc5ncccc5c4)cc3)cc2)cc1	920 nM
CCNc1cc(C(=O)N[C@@H](Cc2ccccc2)[C@H](O)CNCc2cccc(-n3ccnc3)c2)cc(N2CCCC2=O)c1	630 nM
CC(C)C[C@H](NC(=O)c1cc2ccccc2s1)C(=O)N[C@H]1CCN(Cc2ccc(I)c(OCCN3CCCC3)c2)C1	1350 nM
Cc1cccc2[nH]c(=O)c([N+](=O)[O-])c(O)c12	910 nM
Cc1[nH]c(C)c(-c2ccc(Oc3ccc(Cl)cc3)cc2)c(=O)c1C	390 nM
C=CCOc1ccc(C2C(C(=O)OC)=C(C)NC3=C2C(=O)c2ccccc23)cc1OC (stereo not given)	880 nM
CC(C)C(C)(C#N)NC(=O)CSc1nc2ccc([N+](=O)[O-])cc2s1 (stereo not given)	1030 nM
CCN(CC)CCN(Cc1ccc(-c2ccc(C(F)(F)F)cc2)cc1)C(=O)c1ccc(-c2ccc(C#N)cc2)cc1	1110 nM
CN1CCCC(CN2CCN(Cc3ccc(-c4cccc(-c5nc6ccc(F)cc6[nH]5)c4)cc3)CC2)C1 (stereo not given)	180 nM
O=C(NCCN1CCC(c2ccncc2)CC1)c1cccc(Nc2nccc(Nc3ccc(Oc4ccccc4)cc3)n2)c1	170 nM
CCNC(=O)Nc1ccc(-c2cnc(N)c(-c3nc4ccc(OC)cc4[nH]3)c2)cc1	500 nM

SMILES	IC50
CCCc1cc(N2CCC(c3ccccc3)(N3CCCCC3)CC2)nc(Nc2ccc(OC)cc2)n1	1090 nM
Cc1cccc2[nH]c(-c3cccc(-c4cccc(NC(=O)c5ccc(C(N)=O)cc5)c4)c3)nc12	320 nM
c1ccc2c(Nc3ccc(Oc4ccc(Nc5c6ccccc6nc6ccccc56)cc4)cc3)c3ccccc3nc2c1	520 nM
COc1ccc(-c2ncnc(C(F)(F)F)c2-c2ccc(Cl)cc2)c(O)c1	800 nM
CCOc1ccc2c(c1)C(C)(c1ccc3c(c1)C(C)CC(C)(C)N3)CC(C)(C)N2 (stereo not given)	800 nM
O=C(NCC1CC1)C1CCN(C(c2ccccc2)c2cc(F)cc(F)c2)CC1 (stereo not given)	380 nM
CC(C)(C)Nc1cc(C(=O)N[C@@H](Cc2ccccc2)[C@H](O)CNC2CCOCC2)cc(N2CCCCS2(=O)=O)c1	150 nM
Cc1cccc2c(C3CCN(CC4CCC(NC(=O)/C=C/c5ccc(Cl)c(Cl)c5)CC4)CC3)c[nH]c12 (stereo not given)	1030 nM
Cc1ccc2sc(N3CCN(C(=O)c4ccc([N+](=O)[O-])o4)CC3)nc2c1C	940 nM
CCC[C@@H]([C@@H](CC(C)C)C(=O)N[C@H](C(=O)Nc1nccs1)C(C)(C)SCCNC(=O)OCC)N(O)C=O	170 nM
CN(Cc1cccc(O)c1)C1CCCN(c2cc(NC(=O)c3ccc(F)cc3)ccn2)C1 (stereo not given)	1070 nM
OC(CNCc1ccccc1OCc1ccccc1)c1cc(Br)cs1 (stereo not given)	720 nM
CC(C)(C)c1nn(-c2ccc(Cl)cc2)c2[nH]c(=O)c(CNCc3ccc4c(c3)OCO4)cc12	810 nM
CCCCCCn1c(Sc2ccc(C#N)c([N+](=O)[O-])c2)nnc1-c1ccc(Cl)cc1	830 nM
Cc1ccc(CNC(=O)[C@H](CC(C)C)Nc2cc(C)nc(NCC3CCCCC3)n2)cc1	930 nM
Clc1ccc(OC2CCC(Cn3ccnc3)(c3ccc(Cl)cc3Cl)CC2)c(Cl)c1 (stereo not given)	800 nM
O=C(/C=C/c1ccc(Cl)c(Cl)c1)N1CCC(CNCc2cccc3cc[nH]c23)CC1	1220 nM
COc1ccc(C2(CNCC(O)c3cccc([N+](=O)[O-])c3)CCCCC2)cc1OC (stereo not given)	960 nM
Fc1ccc2nc(-c3cccc(-c4ccc(CN5CCCCC5)cc4)c3)[nH]c2c1	160 nM
Cc1nc2ccc(NC(=O)Nc3ccnc4ccc(C(F)(F)F)cc34)cc2o1	910 nM
CN1CCN(c2nsc3ccc(-c4ccc(OCCN5CCCC5)cc4)cc23)CC1	830 nM
CCCNCc1ccc(-c2ccc(CN(CCOC)C(=O)Cc3cccnc3)cc2)nc1	820 nM
COc1c(C)cc(I)cc1CNCCCNc1cc(=O)c2ccccc2[nH]1	1280 nM
COc1cc2nc(N(C)C)nc(Nc3ccc(OCc4ccccc4)cc3)c2cc1OC	70 nM

SMILES	IC50
CCOc1ccc(C(Cc2ccccc2)NC(=O)c2cccnc2)cc1OCC (stereo not given)	770 nM
O=C(c1cccc(-c2noc(C(F)(F)F)n2)c1)N1CCN(C(=O)c2ccc3cc[nH]c3c2)CC1	110 nM
COc1cccc(CNC[C@@H](O)[C@H](Cc2ccccc2)NC(=O)c2cc(NC(C)C)cc(N3CCCCS3(=O)=O)c2)c1	780 nM
Cc1noc(C)c1-c1cccc(CNCc2cccc(-c3cccc(-c4nc5c(C)cccc5[nH]4)c3)c2)c1	370 nM
Cc1cc(Nc2ccc(Cl)c(Cl)c2)n2nc(C)nc2n1	260 nM
CCOc1cc(C)ccc1C1CCN(CCCCNC(=O)c2nc(-c3ccc(C(F)(F)F)cc3)[nH]c2C)CC1	730 nM
Cc1c(C(=O)Nc2cc(Sc3ccc(F)cc3)cc([N+](=O)[O-])c2)sc2ncn(Cc3cccc(F)c3)c(=O)c12	720 nM
CCCc1ccccc1OCC(O)CN(C1CCCC1)C1CCCC1 (stereo not given)	470 nM
CCCc1cc(OC)c(CC2c3cc(O)c(Cl)cc3C(c3ccccc3)CN2C)cc1OC (stereo not given)	430 nM
NC(=NCc1ccc(Cl)c(Cl)c1)NC(=NCCCCCCN=C(NC(N)=NCc1ccc(Cl)c(Cl)c1)N1CCCCC1)N1CCCCC1	570 nM
Clc1cccnc1N1CCN(c2ncccc2Cl)CC1	150 nM
CCCC1(NC[C@@H](O)[C@H](Cc2ccccc2)NC(=O)c2cc(NCC)cc(N3CCCCS3(=O)=O)c2)CCCC1	500 nM
CC[C@H](C)CNC(=O)c1cncc(-c2ccc(CNCC3CNCCCO3)cc2)c1 (stereo not given in full)	1020 nM
c1cc(CNCCN2CCNCC2)cc(-c2cccc(-c3nc4ccccc4[nH]3)c2)c1	960 nM
COc1ccc(CCN(C)CCCN2CCC(NC(=O)c3cccc4c(=O)c5ccccc5[nH]c34)CC2)cc1OC	690 nM
NC1=NC2(CCCCC2)N(Cc2ccc(Cl)c(Cl)c2)C(N)=N1	620 nM
Cc1cc(-c2ccc(NC(=O)N3CCc4cc(Cl)c(N5CCN(C)CC5)cc43)cc2)ccc1C#N	590 nM
Cc1ccc(C2=NNC3(S2)C(=O)N(C)c2ccccc23)cc1 (stereo not given)	1020 nM
COc1cccc(OC)c1-c1ccccc1NC(=O)N1CCCc2cc(C)ccc21	820 nM
O=C(NOCCCCOc1ccc(Cl)c(Cl)c1)c1ccccc1	180 nM
Cc1cccc2[nH]c(-c3ccc(-c4ccc(NC(=O)NCc5cccc(F)c5)cc4)s3)nc12	890 nM
O=C(NCc1ccc(Cl)c(Cl)c1)[C@H]1CNCCN1C(=O)c1ccccc1	950 nM
COc1ccc(CNc2nc(NCc3ccc(C(F)(F)F)cc3)c3cc(OC)c(OC)cc3n2)cc1OC	210 nM
Cc1cc(N[C@@H](CC(C)C)C(=O)NCc2cccc(F)c2)nc(NCCc2ccc(F)cc2)n1	1470 nM

SMILES	IC50
CN(C)c1ccc(CN2CCCCC(NC(=O)c3cc(-c4ccccc4F)cs3)C2)cc1 (stereo not given)	830 nM
CC(=O)c1nccc(C)c1N	930 nM
Cc1cc(NCc2ccc(F)cc2)nc2cc(O)ccc12	760 nM
COC(=O)c1ccc(-c2ccc(C(=O)NCC3CCN(c4nc(N)c5cc(OC)c(OC)cc5n4)CC3)cc2)cc1	180 nM
CCOc1cc(C(=O)NC2CCN(Cc3ccccc3)CC2)ccc1-c1nc2cc(Cl)c(Cl)cc2[nH]1	470 nM
Cc1cc2nc(-c3ccc(/C=C/C(=O)NCCc4ccccc4)cc3)[nH]c2cc1C	780 nM
O=c1cc(NCCCNCc2ccc(Cl)c(Cl)c2)[nH]c2ccc(Cl)cc12	340 nM
COc1ccccc1C1CN(CCNC(=O)c2ncc(C)[nH]2)Cc2ccccc2O1 (stereo not given)	800 nM
Cc1cccc(OCC(=O)Nc2cccc(NC(=O)COc3cccc(C)c3)n2)c1	670 nM
COc1ccc(-c2ccc(CNC3Cc4ccccc4C3)cc2)cc1S(=O)(=O)NCCN1CCCC1	800 nM
O=C(NCCN1CCCC1)c1ccc(-c2ccc(-c3nc4ccc(C(F)(F)F)cc4[nH]3)s2)cc1	750 nM
Cc1cccc2[nH]c(-c3cccc(-c4cccc(NC(=O)CNc5ccc(C(N)=O)cc5)c4)c3)nc12	280 nM
Cc1cc(N(C)C2CCN(C)C2)nc(Nc2ccccc2Cl)n1 (stereo not given)	750 nM
CCN(CC)CCN(Cc1ccc(-c2ccc(C(F)(F)F)cc2)cc1)C(=O)Cn1cc(Cc2cnn(C)c2)c(=O)nc1/C=C/c1cccc(F)c1F	960 nM
O=C(Nc1ccc(C(F)(F)F)cc1)NC1CCN(c2ccnc3cc(Cl)ccc23)C1 (stereo not given)	140 nM
COc1ccc2c(c1)[nH]c1c(C=Cc3ccccc3)nccc12	380 nM
O=C(Nc1cccc(CN2CCN(C(=O)c3cccc(F)c3)CC2)c1)c1ccco1	770 nM
Fc1cc(Cl)ccc1Nc1ccnc2cc(-c3ccc(CN4CCNCC4)o3)ccc12	280 nM
COC(=O)C1=CNC=C(C(=O)OC)C1c1ccc(Cl)c([N+](=O)[O-])c1	680 nM
CC(=O)Nc1nc(C(=O)Nc2cccc(-c3cccc(-c4nc5c(C)cccc5[nH]4)c3)c2)cs1	110 nM
Cc1ccc(-c2nc3ccc(C(=O)NC4CCC(N5CCCc6ccc(C#N)cc6C5)CC4)cc3[nH]2)cc1 (stereo not given)	1360 nM
CC(C)(CNCc1ccc(F)c(F)c1)c1nc(-c2ccc(Cl)c(O)c2)c(-c2ccnc(N)n2)[nH]1	740 nM
Fc1ccc2nc(-c3ccc(-c4cccc(CN5CCN(c6ccncc6)CC5)c4)cc3)[nH]c2c1	90 nM
